From patent US20220030866A1, “CONJUGATES OF AUXIN ANALOGS” (The State of Israel, Ministry of Agriculture & Rural …, priority 2019, published 2022)
Marks after values point to notes of the source that are not given here.

Columns and labels:
Type in all cases: in vivo
[1] = tested on: argan (Argania spinosa) cuttings; assay: rooting of argan cuttings; conditions: in vivo
Procedure: The ability of exemplary conjugates to promote rooting in plants which are recalcitrant to rooting (in addition to the results obtained with Eucalyptus grandis in Example 3) was examined using cuttings of argan (Argania spinosa) and jojoba (Simmondsia chinensis) in a commercial nursery (Shorashim). The argan and jojoba cuttings were treated with 100 μM of a conjugate (any of Compounds 10-1t) with 6000 ppm IBA. The common treatment T-8 (talc with 8000 ppm IBA and a fungicide) or 6000 ppm IBA (without conjugate) served as a control.
(§1) Exemplary conjugates were also tested for rooting the hard-to-root species of avocado (VC801 rootstock) and argan, according to procedures described hereinabove.

[2] = tested on: avocado rootstock cuttings; assay: rooting of avocado rootstock cuttings; conditions: VC801 rootstock
Excerpt: Avocado rootstock is extremely difficult to root. Currently, the common technique for propagating clones of avocado rootstock is to graft the desired rootstock on a seedling, and transfer to the dark to generate an etiolated branch. This branch can be rooted and grafted with the desired variety while still grafted on the seed [Frolich & Platt, California Avocado Society 1971-72 Yearbook 1972, 55:97-109]. However, the preparation of such twice-grafted seedlings is time-consuming and expensive.
The ability of exemplary conjugates to promote rooting in green avocado cuttings (in the presence of IBA) was therefore examined. In particular, Compounds 2h (MCPA-methanol), 4b (NAA-β-alanine methyl ester), 3g (2-DP-methyl-4-aminobenzoate), 3f (2-DP-p-toluidine), 1l (4-CPA-morpholine) and is (4-CPA-D-Trp) were tested.
as §1

[3] = tested on: cuttings from mature Eucalyptus grandis trees; assay: rooting of cuttings from mature Eucalyptus grandis trees; conditions: for root number compared to IBA control, in words: Example 12: 6000 ppm IBA and 50 μM conjugate dip plus spray
Procedure: Eight-year-old Eucalyptus grandis plants were grown from seeds and placed in a net house in 20 liter pots containing peat and tuff (70:30, v/v), drip irrigated and fertilized with 3 liters of Shefer™ 737 liquid fertilizer (ICL Fertilizers, Israel) per cubic meter of water. Cuttings were collected from branches which grew 2-2.5 meters above the ground. Cuttings were 2-3 mm thick branches, 15 cm long, with 1-2 pairs of leaves. The leaf blades were cut in half to decrease transpiration. Cuttings were treated with 6000 ppm IBA (potassium indole-3-butyric acid) for 1 minute with or without 100 μM of each tested compound. The tested compounds were either applied to the base of the cutting, with or without IBA and/or sprayed on the foliage in the presence of 0.05% Triton™ X-100 surfactant. Cuttings were rooted in rooting tables heated to 25° C. under constant 90% humidity, in a controlled-climate greenhouse. The rooting medium contained crushed polystyrene foam: vermiculite no. 3: pit (3:2:1, v/v/v). Rooting was recorded after 30-60 days. Roots system architecture was analyzed by WinRHIZO™ system scanner and software.
Exemplary conjugates prepared as described in Example 1 were tested for their ability to promote adventitious root (AR) formation in cuttings from mature eucalyptus (Eucalyptus grandis) trees. In this model, AR formation is difficult to induce, with 5-15% root development in the presence of IBA potassium salt [Abu-Abied et al., Plant J 2012, 71:787-799], such that effective AR formation indicates a potent root formation activity.
Various concentrations and mode of applications were tested for each compound in the presence or absence of IBA (the “gold standard” rooting enhancer). A concentration of 100 μM of each conjugate was used for an initial screen of 37 conjugates, in which the compounds were applied to the base of the cutting by dipping (submerging the cutting base in a solution of the conjugate for one minute) or to the foliage by spraying. After 45 days, the cuttings were scored for the presence of callus or roots.
Conjugates prepared as described herein were evaluated in a Eucalyptus grandis rooting model, according to procedures such as described hereinabove. The bases of cuttings (a 12-15 cm long branch with the two upper leaves, whose blades were cut in half) were dipped in a solution containing 6000 ppm IBA potassium salt and 50 μM of conjugate for 1 minute, and the leaves were sprayed with 50 μM of the same conjugate (mixed with 0.5% Triton™ X-100 surfactant). The cuttings were imbedded in a heated (25° C.) rooting table containing a 1:2:3 ratio of peat:vermiculite:polystyrene, under 90% relative humidity.

Arabidopsis seedlings [4] = assay: adventitious root formation in intact etiolated Arabidopsis seedlings
Procedure: (§2) Adventitious roots (ARs) were induced in intact plants, using previously described procedures [Gutierrez et al., Plant Cell 2009, 21:3119-3132; Abu-Abied et al., Plant J 2012, 71:787-799; Rasmussen et al., Plant Physiol 2012, 158:1976-1987]. Briefly, seeds were germinated on MS/0.8% agar plates supplemented with 3% sucrose. The plates were kept in the dark for 2 days at 4° C., then 5 days at 22° C. in the dark, 2 days in the light, 3 days in the dark and then additional 4 days in the light to complete 2 weeks when roots were counted using a stereoscope. Sensitivity to auxin and/or auxin analogs was determined by following root elongation on vertical plates. The 4-day-old seedlings were transferred to MS plates containing 0.05 or 0.5 μM IAA and the root length was measured after 5 days, including the number of LRs in each root and calculation of the LR density. Each treatment experiment included 10-15 plants and was repeated 3 times.
In a third assay utilizing an Arabidopsis model, induction of adventitious root AR formation in intact plants was examined in the presence of 50 nM of tested compounds, which included 5 days incubation in the dark, followed by a shift to the light, according to procedures described by Sorin et al. [Plant Cell 2005, 17:1343-1359].
Conjugates prepared as described herein were evaluated in an Arabidopsis rooting model, according to procedures such as described hereinabove. Seeds were germinated and kept in the dark for 4 days. The etiolated seedlings were then incubated for 1 hour in 10 μM of each compound and then transferred to vertical MS medium-containing plates.

mung bean cuttings = assay: rooting of mung bean cuttings (number of adventitious roots per cutting); conditions: for effect on AR formation in mung bean cuttings, in words: tested at 2, 10 or 50 μM; for rooting of mung bean cuttings (number of roots per cutting): Table 2
Procedure: Mung bean cuttings have been used for many years as a model for assessing the effect of plant hormones and synthetic chemicals on the rooting process. In the present study, this system was used to ascertain activity of conjugates in inducing adventitious root (AR) formation, and to evaluate the rate of conjugate hydrolysis that releases the free active auxin. […] The rooting activity in this system is determined by the number of adventitious roots per cutting.
The mung bean model was used to examine the activity of conjugates of three phenoxy acids, 4-CPA, MCPA, and 2-DP, on rooting. For comparison, plants were treated with (unconjugated) IBA or with 2-DP conjugated to glycine methyl ester (Gly-ME).

[5] = tested on: Pinus halepensis cuttings; assay: rooting and root development in pine cuttings; conditions: 400 ppm IBA potassium salt + 5 ppm conjugate, 4 hours dip; 12 weeks
Procedure: The effects of exemplary D-amino acid conjugates of 4-CPA (Compounds to and Is) on rooting in Pinus halepensis cuttings were compared with those of 2-DP-glycine methyl ester conjugate (2-DP-Gly). Rooting mature pine cuttings (i.e., cuttings that are taken from trees more than 4 years old) is very difficult.
Apical cuttings were taken from 7-year-old trees, stored for 4 weeks at 4° C., and treated by dipping the cutting bases for 4 hours in the following solution: 400 ppm IBA potassium salt+5 ppm tested conjugate+0.1% Amistar™ fungicide (250 grams/liter azoxystrobin). The cuttings were evaluated after 12 weeks.

DR5:venus marker = assay: auxin activity by DR5:venus fluorescence in Arabidopsis plants; conditions: 10 μM
Procedure: Imaging was performed using an SP8 Leica confocal microscope including solid-state lasers producing 405, 488, 514 and 552 nm light, and hybrid or PMT detectors. Objectives were either PL APO 20×/0.75, WD 0.62 mm or PL APO 63×/1.2 WD 0.3 mm. For fluorescence measurements, the Imaris™ spot detection option (Bitplane A.G.) was used to segment nuclei and calculate the average signal intensity.
One technique for assessing auxin activity of the 4-CPA amino acid conjugates utilized plants expressing nucleus-localized, fluorescent DR5:venus marker, the expression level of which is an indicator of intracellular auxin activity [Laskowski et al., PLoS Biol 2008, 6:e307]. Four days old seedlings grown on regular MS medium were transferred to plates containing 10 μM of the tested compounds and fluorescence was inspected by confocal microscope after 24 hours.
In order to assess the ability of the abovementioned sodium salts to penetrate the cells and activate an auxin response, an Arabidopsis DR5-Venus model was utilized (as described hereinabove). The plants were exposed to 10 μM of each compound for 24 hour; MS medium was used as a negative control, and the related Compounds 1p, 1r and 1t were used as positive controls.

Arabidopsis seedlings [6] = assay: root elongation inhibition in Arabidopsis seedlings; conditions: 50 nM, after 5 days
Procedure: as §2
A common technique for evaluating auxin activity is by determining the ability of a compound to inhibit root elongation [Zolman et al., Genetics 2000, 156:1323-1337]. In order to use this assay for comparing auxin activities of different conjugates, the minimum concentration of free 4-CPA that is active in the root elongation inhibition assay was determined. Four days old seedlings were placed in vertical plates containing increasing concentrations of 4-CPA. The root lengths were marked daily during 5 days.
Based on the above results, the effect of conjugates of 4-CPA (Compounds 1o-1t) on root elongation after 5 days was determined at concentrations of 50 nM.

[7] = tested on: cuttings from mature Eucalyptus grandis trees; assay: rooting of cuttings from mature Eucalyptus grandis trees; conditions: 100 μM compound by submerging or spraying, with 6000 ppm IBA

SMILES: COC(=O)[C@H](CC(N)=O)NC(=O)COc1ccc(Cl)cc1 [4-CPA-L-Asn-methyl ester]
- number of roots per cutting in argan clone YM3 compared to IBA control, in words [1]: considerably increased the number of roots per cutting
- root architecture / root length of VC801 avocado cuttings compared to IBA control, in words [2]: considerably increased root length

SMILES: COC(=O)[C@H](Cc1cnc[nH]1)NC(=O)COc1ccc(Cl)cc1 [4-CPA-L-His-methyl ester]
- number of roots per cutting in argan clone YM3 compared to IBA control, in words [1]: considerably increased the number of roots per cutting
- root architecture / root length of VC801 avocado cuttings compared to IBA control, in words [2]: considerably increased root length

SMILES: CC[C@H](C)[C@H](NC(=O)COc1ccc(Cl)cc1)C(=O)OC [4-CPA-L-Ile-methyl ester]
- root number compared to IBA control, in words [3]: promoted an increase in root number
- rooting of cuttings, repeated experiment in a different season ([3]; Example 12 repeat: 6000 ppm IBA with 50 μM conjugate, or IBA control): 50%
- number of roots per cutting in argan clone YM3 compared to IBA control, in words [1]: considerably increased the number of roots per cutting
- root architecture / root length of VC801 avocado cuttings compared to IBA control, in words [2]: more roots per cutting and considerably longer roots
- rooting of VC801 avocado cuttings ([2]; conjugate, or IBA control): 60%

SMILES: COC(=O)[C@H](CC(C)C)NC(=O)COc1ccc(Cl)cc1 [4-CPA-L-Leu-methyl ester]
- average number of adventitious roots (Arabidopsis seedlings [4]; Example 12: etiolated seedlings, 1 hour in 10 μM): 10
- root number compared to IBA control, in words [3]: promoted an increase in root number
- number of roots per cutting in argan clone YM3 compared to IBA control, in words [1]: considerably increased the number of roots per cutting
- root architecture / root length of VC801 avocado cuttings compared to IBA control, in words [2]: considerably increased root length

SMILES: COC(=O)[C@H](NC(=O)COc1ccc(Cl)cc1)C(C)C [Compound 1o]
- effect on AR formation in mung bean cuttings, in words (mung bean cuttings): induced rooting to a degree positively correlated with concentration
- Degree of root development Medium (%) [5]: 14.3%
- Degree of root development Weak (%) [5]: 7.2%
- Degree of root development Well-developed (%) [5]: 71.4* %
- Rooting rate (%) [5]: 100%
- DR5 fluorescence (auxin activity), in words (DR5:venus marker): significantly lower fluorescence
- adventitious roots formed on average (Arabidopsis seedlings [4]; intact etiolated seedlings, 50 nM, FIG. 17 legend 10 μM for one hour): 0.5±0.3
- appearance of the roots compared with IBA alone ([3]; 6000 ppm IBA with 100 μM compound, submersion and spraying): appeared more branched
- effect on root elongation relative to control, in words (Arabidopsis seedlings [6]): did not affect root elongation

SMILES: COC(=O)C[C@H](NC(=O)COc1ccc(Cl)cc1)C(=O)OC [Compound 1r, 4-CPA-L-Asp-methyl diester]
- rooting in combination with IBA compared with IBA alone, in words [7]: at least as potent as that of their corresponding D-amino acid conjugates
- rooting of mung bean cuttings (number of roots per cutting) (mung bean cuttings; 2 μM): 121
- rooting of mung bean cuttings (number of roots per cutting) (mung bean cuttings; 10 μM): 34
- rooting of mung bean cuttings (number of roots per cutting) (mung bean cuttings; 50 μM): 0
- effect on AR formation in mung bean cuttings, in words (mung bean cuttings): exhibited more activity than the D-Asp-methyl ester conjugate
- effect on root elongation relative to control, in words (Arabidopsis seedlings [6]): inhibited root elongation relative to control

SMILES: CC(C)[C@H](NC(=O)COc1ccc(Cl)cc1)C(=O)[O-].[Na+] [Compound 83, 4-CPA-L-Val sodium salt]
- DR5 fluorescence (auxin activity), in words (DR5:venus marker): about as active as their non-water soluble methyl esters

SMILES: O=C([O-])C[C@H](NC(=O)COc1ccc(Cl)cc1)C(=O)[O-].[Na+].[Na+] [Compound 84, 4-CPA-L-Asp disodium salt]
- DR5 fluorescence (auxin activity), in words (DR5:venus marker): did not promote DR5 activity
